The text below walks through data of patent publication US20250057819A1, “DRUG COMBINATIONS FOR INHIBITING CORONAVIRUS REPLICATION” (priority 2021, published 2025).

The subject of series [1] is SARS-CoV-2. Description: microbe, parasite or virus in culture. Type of series: cell-based. As to conditions: for EC50: read-out: SARS-CoV-2 EC50.
In the next series the test system is HRT-18 cells. The series can be described thus: Cell viability assay (MTT) in HRT-18 cells.
The test system of a further series is Huh7.5 cells. The series can be described thus: Cell viability assay (MTT) in Huh7.5 cells. Type of series: cell-based, human. As to conditions: Huh7.5 (B), read-out: SARS-CoV-2 CC50. Here is the method:
(§1) Cell viability was monitored by a mitochondrial activity test using methyl-thiazolyl-tetrazolium (MTT, Sigma). After 48 hours of drug treatment, cells were treated with 1 mg/ml of MTT during 3 hours at 37° C. The supernatants were removed and the MTT crystals were dissolved using DMSO and a shaker. The absorbance was read with a Tecan Spark at 570 nm with reference at 650 nm.
(§2) Only the most promising molecules or those studied in synergy were tested in Calu3 cells.

In the next series the test system is rHCoVs-OC43. The series can be described thus: organism not typed. As to conditions: for IC50: drug 2 alone (fast synergy screening table), read-out: IC50; for EC50: drug alone, HRT-18 cells, MOI 0.025, 48 h treatment, decrease of Rluc, read-out: EC50. Type of series: cell-based.
Series [2] is described as follows: Cell viability assay (MTT) in HRT-18 cells. As to conditions: human, CC50 (μM).
Series [3] in a line: Cell viability assay (MTT) in Huh7.5 cells. In kind it is cell-based, human. As to conditions: human, Huh7.5 cells, Huh7.5 (B), read-out: SARS-CoV-2 CC50. As for the experimental part: as §1, §2
The subject of series [4] is SARS-CoV-2. Description: Drug tests in SARS-CoV-2 model, Calu3 cells, viral titration by plaque assay in Vero E6. As to conditions: read-out: SARS-CoV-2 EC50; Calu3 (C), MOI 0.05, 48 h treatment.
Series [5] can be described thus: Cell viability assay (MTT) in Calu3 cells. Type of series: cell-based, Human. Conditions: human, Calu3 cells, Calu3 (C), read-out: SARS-CoV-2 CC50. As for the experimental part: as §1, §2
A further series relates to Calu3 cells. Description: Cell viability assay (MTT) in Calu3 cells. In kind it is cell-based, Human. Conditions: Calu3 (C), read-out: SARS-CoV-2 CC50. As for the experimental part: as §1, §2
In series [6] the test system is SARS-CoV-2. As to conditions: reports from in vitro studies (ref. 16); cited from earlier work.
The next series relates to Covid-19. As to conditions: adults hospitalized with Covid-19 (ref. 17); cited from earlier work.
[7] abbreviates: drug 2 alone (fast synergy screening table).
Setting [8] is: drug alone, HRT-18 cells, 48 h treatment, MTT.
Setting [9] is: Severe acute respiratory syndrome coronavirus 2, Huh7.5, 48 h.

Molecules are shown by their SMILES. Structures can show the parent of a compound that is named as a salt. Where two headings read alike, the source gives them in different places.

The EC50 is the midpoint of the concentration-response curve. A word on the CC50: it is the concentration giving 50% cytotoxicity. For orientation: IC50 means the concentration at which inhibition is half-maximal.

Turning to `COc1c(C)c2c(c(O)c1C/C=C(\C)CCC(=O)OCCN1CCOCC1)C(=O)OC2` [Mycophenolate mofetil], the EC50 in the series with SARS-CoV-2 [1] is 1.18 µM; in the series on rHCoVs-OC43 it was 0.18 µM. Also, the CC50 is over 10 µM in the series with HRT-18 cells (setting [7]), over 10 µM with HRT-18 cells (setting [8]) and 9.1 µM in the series on Huh7.5 cells. In the series with rHCoVs-OC43, the 50% inhibitory concentration (IC50) came out at 0.18 µM.

Regarding `C#C[C@]1(O)CC[C@H]2[C@@H]3CCC4=Cc5oncc5C[C@]4(C)[C@H]3CC[C@@]21C` [Danazol], the half-maximal effective concentration (EC50) in the series with SARS-CoV-2 [1] (setting [9]) is 0.83 µM; with rHCoVs-OC43 it was 1 µM. For the same compound, the CC50 at 48 h in series [2] (setting [7]), in [2] (setting [8]) and in [3] was over 10 µM each time. For the same compound, the IC50 in the series on rHCoVs-OC43 (48 h) and with rHCoVs-OC43 was 1 µM throughout.

For `CCN(CC)CCOc1ccc2c(c1)C(=O)c1cc(OCCN(CC)CC)ccc1-2` [Tilorone dihydrochloride], the EC50 came out at 0.5 µM with SARS-CoV-2 [1] (setting [9]), 0.07 µM in the series with SARS-CoV-2 [4] and 0.014 µM in the series on rHCoVs-OC43. In addition, the CC50 at 48 h in series [2] (setting [8]), in series [3] and in [5] was over 10 µM throughout.

In the case of `CC(C)C(=O)OC[C@H]1O[C@@H](n2cc/c(=N\O)[nH]c2=O)[C@H](O)[C@@H]1O` [Molnupinavir], the concentration for a half-maximal effect (EC50) with SARS-CoV-2 [1] was 0.084 µM; in the series with SARS-CoV-2 [4], 0.035 µM. Further, the CC50 in the series on Huh7.5 cells and in the series on Calu3 cells was over 10 µM each time.

As for `CN1CCN(CCCN2c3ccccc3Sc3ccc(C(F)(F)F)cc32)CC1` [Trifluoperazine dihydrochloride], the EC50 with SARS-CoV-2 [1] (setting [9]) was over 10 µM; with rHCoVs-OC43, 2.9 µM. For the same compound, the “inhibitory effect on viral replication” value with SARS-CoV-2 [1] (drug alone, SARS-CoV-2, words) is on record as “did not show any significant inhibition of viral replication”. Also, the CC50 at 48 h in series [2] (setting [7]), in series [2] (setting [8]) and in series [3] was over 10 µM each time. The IC50 in the series with rHCoVs-OC43 (48 h) and with rHCoVs-OC43 was 2.9 µM each time.

With `Cc1c(O)cccc1C(=O)N[C@@H](CSc1ccccc1)[C@H](O)CN1C[C@H]2CCCC[C@H]2C[C@H]1C(=O)NC(C)(C)C` [Nelfinavir mesylate], the EC50 with SARS-CoV-2 [1] (setting [9]) was found to be 1.7 µM; in the series on SARS-CoV-2 [4], 0.11 µM; in the series with rHCoVs-OC43, 2.6 µM. Also, the CC50 at 48 h in [2] (setting [7]), in [2] (setting [8]), in [3] and in series [5] was over 10 µM throughout. Further, the IC50 in the series on rHCoVs-OC43 (48 h) and with rHCoVs-OC43 was 2.6 µM each time.

As for `Cc1cccc(C)c1OCC(=O)N[C@@H](Cc1ccccc1)[C@@H](O)C[C@H](Cc1ccccc1)NC(=O)[C@H](C(C)C)N1CCCNC1=O` [Lopinavir], the EC50 in the series on SARS-CoV-2 [6] was 26 µM. The clinical benefit entry in the series with Covid-19 is given as “no benefit was observed”.

Take `CCC(CC)COC(=O)[C@H](C)N[P@](=O)(OC[C@H]1O[C@@](C#N)(c2ccc3c(N)ncnn23)[C@H](O)[C@@H]1O)Oc1ccccc1` [Remdesivir]: the EC50 in the series on SARS-CoV-2 [1] (setting [9]) is at most 0.001 µM; in the series on SARS-CoV-2 [4] it was 0.004 µM; in the series on rHCoVs-OC43, 0.034 µM. In addition, the CC50 at 48 h is 2.5 µM in [2] (setting [7]), 2.5 µM in series [2] (setting [8]), over 10 µM in [3] and over 10 µM in series [5]. The IC50 in the series with rHCoVs-OC43 (48 h) and in the series on rHCoVs-OC43 was 0.034 µM each time.
